From PubChem BioAssay AID2124 (Sanford-Burnham Center for Chemical Genomics, 2009) come the findings set out here.

The structures appear in SMILES notation. Results filed as inconclusive are left out. The source made the active and inactive calls. How the calls were made is not given here; tested in MIN6 cells.

Assay [1] relates to cells, GFP-channel autofluorescence, high-content imaging. Kind of assay: cell-permeable autofluorescent compounds in GFP channel, dose response, artefact control, imaging, high-content imaging (AID 2124).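 On cell count: cells exposed to compound for 48 hours before fixing.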
Experiment in assay [2]: as above
The settings on record: cells, GFP-channel autofluorescence, high-content imaging; cell count; at 10 µM.

`CN1C(=O)C(=Cc2ccc(N3CCCCC3)o2)C(=O)N(C)C1=S`: the EC50 in assay [1] is > 16 µM (inactive). This molecule also returned a cell count in assay [2] of 2940 cells.

For the molecule `CCN(CC)c1ccc2cc(C(=O)Nc3ccccn3)c(=O)oc2c1`, in assay [1], the concentration for a half-maximal effect (EC50) was 5.37 µM. In assay [2], the cell count was found to be 3080 cells.

As to `COc1ccc2c(n1)Sc1nc3ccccc3nc1N2`, the EC50 in assay [1] was 6.69 µM. This molecule registered a cell count in assay [2] of 3030 cells.

As for `CCCN1CCc2c(sc(NC(=S)NC(=O)c3ccccc3)c2C#N)C1`, the EC50 in assay [1] was 13.3 µM (inactive). Also, the cell count in assay [2] was found to be 3200 cells.

For the molecule `COc1ccc2c(c1)NC(c1ccc(N(C)C)cc1)c1cccn1-2` (stereo not drawn), the half-maximal effective concentration (EC50) in assay [1] is 3.12 µM. The cell count in assay [2] was 2940 cells.

Consider `CCCCN1C(=O)/C(=C/C=C2\N(C)c3ccccc3C2(C)C)SC1=S`, for which the EC50 in assay [1] was 2.65 µM. This molecule also gave a cell count in assay [2] of 2910 cells.

As for `CN1/C(=C\C=C2/SC(=S)NC2=O)C(C)(C)c2ccccc21`, the EC50 in assay [1] was 6.13 µM. This molecule also registered a cell count in assay [2] of 147 cells.

Turning to `CN1CCS/C1=C/C=C1/SC(=S)N(Cc2ccccc2)C1=O`, the EC50 in assay [1] was 8.87 µM. Further, the cell count in assay [2] came out at 2970 cells.

`CC(=O)n1c(C=Nc2ccccc2)c(O)c2ccccc21`: in assay [1], the EC50 is 8.96 µM. The cell count in assay [2] amounted to 3060 cells.

Regarding `CCCCOc1ccc(-c2cc(C(F)(F)F)c(C#N)c(SCC(=O)O)n2)cc1`, the EC50 in assay [1] is 12.3 µM (inactive). This molecule also returned a cell count in assay [2] of 3060 cells.

Consider `CC(C)(C)NC(=S)N/N=C\c1ccc(-c2ccc([N+](=O)[O-])cc2)o1`, for which, in assay [1], the EC50 was 11.4 µM (inactive). In addition, in assay [2], the cell count came out at 3000 cells.

Regarding `Cc1ccc(CNc2ccc3c(c2)OCO3)cc1`, the EC50 in assay [1] is 6.18 µM. In assay [2], this molecule gave a cell count of 2720 cells.

`COc1cc(N2CCCC2)c(OC)cc1/C=C(/C#N)c1cccc(F)c1`: in assay [1], the EC50 is 6.47 µM. The molecule also had a cell count in assay [2] of 2910 cells.

Turning to `Cc1cc2nc3c(=O)n(C4CCCCC4)c(=O)[nH]c3nc2cc1N`, in assay [1], the EC50 was 11.8 µM (inactive). The same molecule had a cell count in assay [2] of 3150 cells.

As to `COc1cc2c3nnc(-c4ccc(F)cc4)c-3cn(Cc3ccccc3)c2cc1OC`, the EC50 in assay [1] was 2.58 µM. Also, the cell count in assay [2] is 338 cells.

`CN1CC=C2C(C#N)=C(N)C(C#N)(C#N)C(c3ccsc3)C2C1` (stereo not drawn): the EC50 in assay [1] was > 16 µM (inactive). For the same molecule, in assay [2], the cell count came to 2400 cells.

On to `CCCN1C=CC(=CC=C(C#N)C#N)C=C1`, for which the 50% effective concentration (EC50) in assay [1] was 7.84 µM. In assay [2], this molecule had a cell count of 3220 cells.

For `COc1ccc(C2C(C(C)=O)=C(C)N=c3s/c(=C\c4cc(C)n(C)c4C)c(=O)n32)c(OC)c1` (stereo not drawn), the EC50 in assay [1] is 6.06 µM. This molecule registered a cell count in assay [2] of 3650 cells.

Consider `O=[N+]([O-])c1ccc(N/N=C/c2ccc[nH]2)cc1`, for which the EC50 in assay [1] was 4.32 µM. In assay [2], this molecule gave a cell count of 841 cells.

For the molecule `CC(=O)c1c(C)[nH]c(-c2ccccc2)nc1=S`, in assay [1], the EC50 was 2.37 µM. In addition, the cell count in assay [2] worked out at 3120 cells.

On to `O=C(/C=C/c1ccc(N2CCC(c3ccccc3)=N2)cc1)c1ccccc1`, for which the EC50 in assay [1] was 5.99 µM. For the same molecule, in assay [2], the cell count turned out to be 2900 cells.

As for `CCCCN1C(=O)/C(=C/C=C2\SCCN2C)SC1=S`, in assay [1], the half-maximal effective concentration (EC50) was 6.67 µM. This molecule registered a cell count in assay [2] of 2930 cells.

`COc1ccc(/C=C2\C(=O)NC(=S)N2C(=O)c2ccc(F)cc2)cc1`: the EC50 in assay [1] is > 16 µM (inactive). The cell count in assay [2] amounted to 2980 cells.

For the molecule `Cc1ccc(/C(C#N)=C\c2ccc(N3CCOCC3)o2)cc1`, the EC50 in assay [1] is 10.3 µM (inactive). In assay [2], this molecule came in with a cell count of 1110 cells.

As to `Cc1cccn2c(=O)c(/C=C3\SC(=S)NC3=O)c(NCCCN3CCOCC3)nc12`, in assay [1], the EC50 was 9.39 µM. The same molecule returned a cell count in assay [2] of 2700 cells.

Consider `CCOC(=O)CN1C(=O)S/C(=C/c2ccc(N3CCCCC3)o2)C1=O`, for which the EC50 in assay [1] is 7.22 µM. In assay [2], this molecule had a cell count of 3180 cells.

On to `O=[N+]([O-])c1ccc(N2N=C(c3ccco3)CC2c2ccccc2)cc1` (stereo not drawn), for which the EC50 in assay [1] was 6.38 µM. Besides, in assay [2], the cell count came to 2840 cells.

Regarding `Cc1oc(C)c2c(=O)ccc3c(c12)OC(N)=C(C#N)C3c1ccccc1Cl` (stereo not drawn), the EC50 in assay [1] was 14.8 µM (inactive). The molecule further displayed a cell count in assay [2] of 3240 cells.

Take `N#C/C(=C\c1ccc(N2CCCCC2)o1)C(N)=O`: the EC50 in assay [1] was 12.2 µM (inactive). The cell count in assay [2] came to 3260 cells.

Regarding `COc1ccc2c(C)cc(SCC(=O)N(C)C3CCS(=O)(=O)C3)nc2c1` (stereo not drawn), the EC50 in assay [1] is 9.63 µM. In addition, the cell count in assay [2] worked out at 3270 cells.

In the case of `CC1=C/C(=C\C=C(C#N)C#N)N(C)c2ccccc21`, in assay [1], the EC50 is 3.23 µM. The cell count in assay [2] came to 3120 cells.

`CCCCn1nc(-c2ccccc2)c2nc3ccccc3nc21`: the EC50 in assay [1] was 13.8 µM (inactive). This molecule also showed a cell count in assay [2] of 3250 cells.

For `Cc1ccc(-c2cn3nc(-c4ccccc4)c(-c4ccccc4)nc3n2)cc1`, the half-maximal effective concentration (EC50) in assay [1] is 6.02 µM. Moreover, in assay [2], the cell count came to 3200 cells.

As for `CCOCCCNc1nc2c(C)cccn2c(=O)c1/C=C1\SC(=S)N(C(C)CC)C1=O` (stereo not drawn), in assay [1], the EC50 was > 16 µM (inactive). The same molecule returned a cell count in assay [2] of 2910 cells.

A word on the EC50: it is the concentration giving half of the maximal effect.
